Experimental findings from PubChem BioAssay (NCI) are described below.

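Each compound was tested at five concentrations against cells in 96-well plates for 48 hours. TGI: concentration producing complete growth inhibition.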

Some test systems named below: HL-60(TB) leukemia; A549 NSCLC; OVCAR-4 ovarian; DU-145 prostate; HOP-92 NSCLC; SNB-19 CNS; MDA-MB-435; HCT-116 colon; 786-0 renal.
Holding throughout (experiment): inhibition of tumour cell growth, NCI panel, 48 h

As for `COC(=O)C1=C(C(=O)OC)SC(=C2SCSC3=C2SC(C(=O)OC)=C(C(=O)OC)C32SC3=C(CCCC3)S2)S1`, the TGI with HL-60(TB) leukemia, in the experiment with A549 NSCLC, with OVCAR-4 ovarian, with DU-145 prostate, in the experiment with HOP-92 NSCLC and in the experiment on SNB-19 CNS was above 100 µM in each case. In addition, the TGI with MDA-MB-435, in the experiment with HCT-116 colon and in the experiment with 786-0 renal was above 100 µM each time.
As to `CC(=O)/C=C/C1=C(C)CCCC1(C)CC(C)C` (stereo not given), the TGI in the experiment on HL-60(TB) leukemia was 30.3 µM; in the experiment on A549 NSCLC, above 100 µM; in the experiment on OVCAR-4 ovarian it was above 100 µM; with DU-145 prostate, above 100 µM; in the experiment with HOP-92 NSCLC, 37.7 µM; with SNB-19 CNS it was above 100 µM. Also, the TGI was above 100 µM in the experiment on MDA-MB-435, 77.8 µM in the experiment on HCT-116 colon and 45.2 µM in the experiment with 786-0 renal.
For the compound `CCOC(=O)Nc1sc2c(c1C#N)CCCC2`, the TGI in the experiment with HL-60(TB) leukemia, with OVCAR-4 ovarian, in the experiment on DU-145 prostate, in the experiment on HOP-92 NSCLC, with SNB-19 CNS and in the experiment on MDA-MB-435 was above 100 µM each time. In addition, the TGI in the experiment with HCT-116 colon and with 786-0 renal was above 100 µM throughout.
Consider `CC1CN(C)c2ccccc2N=C1NN` (stereo not given), for which the TGI in the experiment on HL-60(TB) leukemia, in the experiment with A549 NSCLC, with OVCAR-4 ovarian, with DU-145 prostate, with SNB-19 CNS and with MDA-MB-435 was above 100 µM each time. The TGI in the experiment with HCT-116 colon and in the experiment on 786-0 renal was above 100 µM in each case.
In the case of `CCOP(=O)(OCC)C(F)(F)c1ccc(CC(NC(=O)OC(C)(C)C)C(=O)O)cc1` (stereo not given), the TGI in the experiment with A549 NSCLC, in the experiment on OVCAR-4 ovarian, in the experiment on DU-145 prostate, with HOP-92 NSCLC, with SNB-19 CNS and in the experiment with MDA-MB-435 was above 10 µM in each case. The TGI in the experiment with HCT-116 colon and in the experiment with 786-0 renal was above 10 µM each time.
Consider `CCN(CC)C(=S)N/N=C/c1cc([N+](=O)[O-])ccc1O`, for which the TGI with HL-60(TB) leukemia is 6.08 µM; in the experiment with A549 NSCLC it was 54 µM; in the experiment on OVCAR-4 ovarian it was 19.1 µM; with DU-145 prostate it was above 100 µM; in the experiment with SNB-19 CNS, 73 µM; in the experiment on MDA-MB-435 it was 76.9 µM. Further, the TGI was 12 µM in the experiment on HCT-116 colon and 68.9 µM in the experiment with 786-0 renal.
Take `CCC(=O)NC(Nc1cc(C)on1)(C(F)(F)F)C(F)(F)F`: the TGI in the experiment on HL-60(TB) leukemia, in the experiment with A549 NSCLC, with DU-145 prostate, in the experiment on HOP-92 NSCLC, in the experiment with SNB-19 CNS and with MDA-MB-435 was above 100 µM in each case. For the same compound, the TGI with HCT-116 colon and in the experiment on 786-0 renal was above 100 µM in each case.
As for `COc1ccc(C(=C2C=CC=C2)c2ccc(OC)cc2)cc1`, the TGI in the experiment on HL-60(TB) leukemia was above 100 µM; in the experiment on A549 NSCLC, above 100 µM; in the experiment with OVCAR-4 ovarian, above 100 µM; in the experiment with DU-145 prostate it was above 100 µM; with HOP-92 NSCLC, above 100 µM; in the experiment with SNB-19 CNS, 74.8 µM. The TGI with MDA-MB-435 was above 100 µM; in the experiment on HCT-116 colon it was 84.8 µM.
With `c1ccc2c3[nH]c(c2c1)=Nc1ccc(cc1)-c1nc2cc(ccc2o1)N=c1[nH]c(c2ccccc12)=Nc1ccc2nc(oc2c1)-c1ccc(cc1)N=3`, the TGI with HL-60(TB) leukemia, with OVCAR-4 ovarian, in the experiment on DU-145 prostate, in the experiment on SNB-19 CNS, with MDA-MB-435 and in the experiment with HCT-116 colon was above 100 µM throughout. Besides, the TGI in the experiment on 786-0 renal is above 100 µM.
With `Cc1oc2c(cc(O)c3cc(O)ccc32)c2cccc1-2`, the TGI in the experiment on HL-60(TB) leukemia, with A549 NSCLC, in the experiment with DU-145 prostate, with HOP-92 NSCLC, in the experiment on SNB-19 CNS and with MDA-MB-435 was above 100 µM in each case. Moreover, the TGI in the experiment with HCT-116 colon and in the experiment with 786-0 renal was above 100 µM throughout.
On to `Oc1ccc2c(c1)c1c(n2CCN2CCOCC2)-c2ccccc2CC1`, for which the TGI in the experiment with HL-60(TB) leukemia, in the experiment on SNB-19 CNS, in the experiment on HCT-116 colon and in the experiment on 786-0 renal was above 100 µM in each case.
On to `COc1ncc(/C=C2\OC(=O)c3ccccc32)c(OC)n1`, for which the TGI with HL-60(TB) leukemia, with A549 NSCLC, in the experiment with DU-145 prostate, in the experiment on HOP-92 NSCLC, in the experiment with SNB-19 CNS and in the experiment with MDA-MB-435 was above 100 µM in each case. The TGI in the experiment on HCT-116 colon and in the experiment on 786-0 renal was above 100 µM throughout.
Consider `O=C(NCc1ccccc1)c1n[nH][nH]c1=O`, for which the TGI with HL-60(TB) leukemia, in the experiment with A549 NSCLC, in the experiment with OVCAR-4 ovarian, with DU-145 prostate, in the experiment with SNB-19 CNS and with MDA-MB-435 was above 100 µM throughout. Also, the TGI with HCT-116 colon and with 786-0 renal was above 100 µM in each case.
As for `Nc1nc(-c2ccccc2)nc2oc(-c3cccs3)nc12`, the TGI with HL-60(TB) leukemia, with A549 NSCLC, with DU-145 prostate, with HOP-92 NSCLC, with SNB-19 CNS and in the experiment on MDA-MB-435 was above 100 µM in each case. The TGI in the experiment with HCT-116 colon and with 786-0 renal was above 100 µM in each case.
With `Cc1cc(Nc2ccc(S(=O)(=O)O)c3cc(S(=O)(=O)O)cc(S(=O)(=O)O)c23)c2ccccc2n1`, the TGI in the experiment on HL-60(TB) leukemia, with A549 NSCLC, in the experiment on OVCAR-4 ovarian, in the experiment with DU-145 prostate, in the experiment with SNB-19 CNS and in the experiment on MDA-MB-435 was above 100 µM each time. Also, the TGI in the experiment on HCT-116 colon and in the experiment on 786-0 renal was above 100 µM each time.
In the case of `Oc1ccc(Cc2cc(Cc3ccc(O)cc3)cc(Cc3ccc(O)cc3)c2)cc1`, the TGI in the experiment on HL-60(TB) leukemia, with A549 NSCLC, in the experiment on OVCAR-4 ovarian, with DU-145 prostate, with SNB-19 CNS and in the experiment on MDA-MB-435 was above 50 µM throughout. The TGI with HCT-116 colon and in the experiment with 786-0 renal was above 50 µM throughout.
